Data taken from ChEMBL document CHEMBL1201862, “PubChem BioAssay data set” (2004).
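96-well plates; 48 h exposure; 5 concentrations. Endpoints by linear interpolation between flanking doses. Not reached: highest tested concentration assigned. Abbreviation: GI50, concentration required for 50% inhibition of growth.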 The source made the active and inactive calls. No stated cut-off is given here; in the data, active = GI50 up to about 1.1 µM and inactive = higher.

Key:
Assay in all cases: NCI-60 cell line screen, 48 h
[1] = system: MCF7
[2] = system: CCRF-CEM
[3] = system: OVCAR-4
[4] = system: OVCAR-5
[5] = system: RXF 393
[6] = system: MDA-MB-231
[7] = system: OVCAR-3
[8] = system: 786-0
[9] = system: DU-145
[10] = system: U-251
[11] = system: HT-29
[12] = system: TK-10
[13] = system: NCI-H460
[14] = system: UO-31
[15] = system: K562
[16] = system: EKVX
[17] = system: SNB-75
[18] = system: ACHN
[19] = system: BT-549
[20] = system: IGROV-1
[21] = system: MDA-N
[22] = system: M14
[23] = system: OVCAR-8
[24] = system: SF-539
[25] = system: NCI-H226
[26] = system: NCI-H522
[27] = system: SNB-19
[28] = system: SF-295
[29] = system: A549
[30] = system: Hs-578T
[31] = system: UACC-257
[32] = system: T47D
[33] = system: SK-MEL-5
[34] = system: SR
[35] = system: SF-268
[36] = system: MOLT-4
[37] = system: HL-60
[38] = system: KM12
[39] = system: MDA-MB-435
[40] = system: NCI-H23
[41] = system: HCT-116
[42] = system: COLO 205
[43] = system: NCI/ADR-RES
[44] = system: HOP-62
[45] = system: CAKI-1
[46] = system: SK-MEL-2
[47] = system: SW-620
[48] = system: SN12C
[49] = system: HCT-15
[50] = system: SK-OV-3
[51] = system: A498
[52] = system: UACC-62
[53] = system: PC-3
[54] = system: SK-MEL-28
[55] = system: RPMI-8226

Question: How did the GI50 [1] turn out when `CC(C)=Nn1cnc2c1=NC(C)(C)NC=2C(N)=O` was run?
Answer: > 10 µM (inactive)

Question: And the GI50 [2]?
Answer: > 10 µM (inactive)

Question: And the GI50 [3]?
Answer: > 10 µM (inactive)

Question: What about the GI50 [4] of the same compound?
Answer: > 10 µM (inactive)

Question: What about the GI50 [5] of the same compound?
Answer: > 10 µM (inactive)

Question: And the GI50 [6]?
Answer: 0.125 µM (active)

Question: What about the GI50 [7] of the same compound?
Answer: > 10 µM (inactive)

Question: What about the GI50 [8] of the same compound?
Answer: > 10 µM (inactive)

Question: What about the GI50 [9] of the same compound?
Answer: > 10 µM (inactive)

Question: And the GI50 [10]?
Answer: > 10 µM (inactive)

Question: And the GI50 [11]?
Answer: 1 µM (active)

Question: What about the GI50 [12] of the same compound?
Answer: > 10 µM (inactive)

Question: What about the GI50 [13] of the same compound?
Answer: > 10 µM (inactive)

Question: And the GI50 [14]?
Answer: > 10 µM (inactive)

Question: What about the GI50 [15] of the same compound?
Answer: > 10 µM (inactive)

Question: And the GI50 [16]?
Answer: > 10 µM (inactive)

Question: What about the GI50 [17] of the same compound?
Answer: > 10 µM (inactive)

Question: What about the GI50 [18] of the same compound?
Answer: > 10 µM (inactive)

Question: What about the GI50 [19] of the same compound?
Answer: > 10 µM (inactive)

Question: What about the GI50 [20] of the same compound?
Answer: > 10 µM (inactive)

Question: And the GI50 [21]?
Answer: > 10 µM (inactive)

Question: And the GI50 [22]?
Answer: > 10 µM (inactive)

Question: What about the GI50 [23] of the same compound?
Answer: > 10 µM (inactive)

Question: What about the GI50 [24] of the same compound?
Answer: > 10 µM (inactive)

Question: And the GI50 [25]?
Answer: > 10 µM (inactive)

Question: And the GI50 [26]?
Answer: > 10 µM (inactive)

Question: What about the GI50 [27] of the same compound?
Answer: > 10 µM (inactive)

Question: And the GI50 [28]?
Answer: > 10 µM (inactive)

Question: And the GI50 [29]?
Answer: > 10 µM (inactive)

Question: What about the GI50 [30] of the same compound?
Answer: > 10 µM (inactive)

Question: And the GI50 [31]?
Answer: > 10 µM (inactive)

Question: What about the GI50 [32] of the same compound?
Answer: 0.001 µM (active)

Question: And the GI50 [33]?
Answer: > 10 µM (inactive)

Question: What about the GI50 [34] of the same compound?
Answer: > 10 µM (inactive)

Question: What about the GI50 [35] of the same compound?
Answer: > 10 µM (inactive)

Question: And the GI50 [36]?
Answer: > 10 µM (inactive)

Question: What about the GI50 [37] of the same compound?
Answer: > 10 µM (inactive)

Question: What about the GI50 [38] of the same compound?
Answer: > 10 µM (inactive)

Question: And the GI50 [39]?
Answer: > 10 µM (inactive)

Question: What about the GI50 [40] of the same compound?
Answer: > 10 µM (inactive)

Question: Which results are given for `O=S(=O)(Cc1ccccc1)c1nnc(S(=O)(=O)c2ccc(Cl)cc2)s1`?
Answer: GI50 [1]: 48 µM (inactive); GI50 [3]: 24.4 µM (inactive); GI50 [4]: 24.8 µM (inactive); GI50 [5]: 17.3 µM (inactive); GI50 [6]: 34.8 µM (inactive); GI50 [7]: 20.5 µM (inactive); GI50 [8]: 23.6 µM (inactive); GI50 [9]: 17 µM (inactive); GI50 [10]: 33 µM (inactive); GI50 [11]: 22.5 µM (inactive); GI50 [12]: 12.2 µM (inactive); GI50 [13]: 21.2 µM (inactive); GI50 [41]: 19.5 µM (inactive); GI50 [42]: 16 µM (inactive); GI50 [14]: 21.3 µM (inactive); GI50 [15]: 32.2 µM (inactive); GI50 [16]: 25.6 µM (inactive); GI50 [43]: 25 µM (inactive); GI50 [17]: 16.6 µM (inactive); GI50 [44]: 21.4 µM (inactive); GI50 [18]: 19.4 µM (inactive); GI50 [19]: 20 µM (inactive); GI50 [45]: 24.3 µM (inactive); GI50 [46]: 22.8 µM (inactive); GI50 [47]: 23.9 µM (inactive); GI50 [21]: 18.1 µM (inactive); GI50 [48]: 20.2 µM (inactive); GI50 [22]: 17.7 µM (inactive); GI50 [23]: 19 µM (inactive); GI50 [24]: 18.5 µM (inactive); GI50 [26]: 14 µM (inactive); GI50 [49]: 20.9 µM; GI50 [50]: 23.3 µM (inactive); GI50 [27]: 19.6 µM (inactive); GI50 [28]: 24.1 µM (inactive); GI50 [29]: 27.5 µM (inactive); GI50 [51]: 22 µM (inactive); GI50 [52]: 27 µM (inactive); GI50 [30]: 18.1 µM (inactive); GI50 [53]: 21.8 µM (inactive); GI50 [31]: 19.9 µM (inactive); GI50 [32]: 31.6 µM (inactive); GI50 [54]: 19.9 µM (inactive); GI50 [33]: 17.9 µM (inactive); GI50 [35]: 19.5 µM (inactive); GI50 [36]: 3.39 µM (inactive); GI50 [38]: 25.7 µM (inactive); GI50 [55]: 15.9 µM (inactive); GI50 [39]: 27.1 µM (inactive); GI50 [40]: 23.3 µM (inactive)
